Reference: PMC5486603, “Toward molecular imaging of the free fatty acid receptor 1” (Acta Diabetologica, 2017)
“Also recorded” adds a separate entry of the source.

How the values were obtained:
[1] = target: mouse GPR40 receptor; design: method as in data on file, AstraZeneca; settings: mouse GPR40 overexpressing HEK293 cells, IP-One Tb HTRF; ref data on file, AstraZeneca; cited from earlier work
[2] = design: method as in NCT01609582; settings: oral dosing of 50 mg daily, individuals with Type 2 diabetes with cardiovascular risk factors, phase 3; ref NCT01609582; cited from earlier work
[3] = target: T1, FFAR1 (Homo sapiens, UniProt O14842); assay: In vitro radioligand binding and saturation binding in human islets of Langerhans homogenate; design: Isolated endocrine (75–95% islet purity) and exocrine tissues were homogenized in ice-cold 0.32 M sucrose; from tissue; host or cells: human isolated pancreatic islets (75–95% purity), homogenate; settings: for islet-to-exocrine ratio: human islets vs human exocrine tissue; for FFAR1 density by specific binding: isolated human islets of Langerhans
T1 sequence (O14842 whole entry): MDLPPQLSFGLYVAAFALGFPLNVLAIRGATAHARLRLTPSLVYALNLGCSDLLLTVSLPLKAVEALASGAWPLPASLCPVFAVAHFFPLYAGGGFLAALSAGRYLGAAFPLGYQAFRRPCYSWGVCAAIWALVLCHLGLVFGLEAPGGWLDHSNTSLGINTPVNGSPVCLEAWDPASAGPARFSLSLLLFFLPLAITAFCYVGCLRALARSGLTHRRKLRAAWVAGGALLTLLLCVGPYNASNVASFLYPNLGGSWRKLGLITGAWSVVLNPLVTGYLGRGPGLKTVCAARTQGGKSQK
Procedure: (§1) Isolated pancreatic islets and exocrine tissue were obtained within the Nordic network for Clinical Islet Transplantation laboratory in Uppsala, Sweden. The use of human tissue was approved by the Uppsala Ethical Review Board (#2011/473, #Ups 02-577).
(§2) Isolated endocrine (75–95% islet purity) and exocrine tissues were homogenized in ice-cold 0.32 M sucrose by hand using a Dounce glass homogenizer to a final concentration of 6 mg/ml. 50–100 mg INS-1 xenografts were homogenized using a Polytron tissue homogenizer (Polytron® PT 3000, Kinematica AG, Littau-Luzern, Switzerland) in ice-cold 0.32 M sucrose at a concentration of 6 mg/ml and then by hand using a Dounce glass homogenizer. Protein concentration was determined using Bio-Rad Protein Assay (Bio-Rad Laboratories, Hercules, CA) with bovine serum albumin as standard. Aliquots of the homogenates were stored at −80 °C until used.
(§3) One milligram of homogenized endocrine and exocrine tissue and 2 mg insulinoma tissue was incubated for 2 h at room temperature with 2 nM [^3H]AZ1 or 2 nM [^3H]AZ2 and PBS in a final incubation volume of 1 ml. Two milligram insulinoma tissue was incubated for 2 h at room temperature with 4 nM [^3H]TAK-875 and 50 mM TRIS (pH 7.4) in a final incubation volume of 1 ml. All three ligands were dissolved in ethanol. 10 µM of unlabeled AZ1 or TAK-875 was added for determination of non-specific binding. The samples were filtered using a Brandel M-48 cell harvester with Whatman GF/C filter (presoaked with PBS or 50 mM TRIS) and washed four times with 3 ml PBS or 50 mM TRIS (room temperature). Filters were put into scintillation vials, dried for 30 min before adding 10 ml Ultima Gold scintillation fluid (Perkin Elmer, Waltham, MA). The filters were shaken for 60 min and then counted in a β-counter (Packard Scintillator Tri-Carb 2100TR). The K d and B max values for [^3H]AZ1 binding were determined using concentrations of the tritiated ligand from 1 to 20 nM. All assay concentrations were replicated in triplicate, both total binding and non-specific binding.
(§4) The specific binding for each concentration of radiolabeled ligand was calculated by subtracting the non-specific binding (average of three replicates) from the total binding (average of three replicates), and expressed as fmol or pmol/mg protein. The specific binding data were analyzed with curve-fitting software (GraphPad Prism version 5.04) to obtain K d and B max values.

[4] = target: T2, FFAR1 (Rattus norvegicus, UniProt Q8K3T4); assay: In vitro radioligand binding in INS-1 xenograft tissue homogenate; settings: for off-target (non-displaceable) binding: 2 nM [3H]AZ1 or [3H]AZ2, 4 nM [3H]TAK-875, 10 µM unlabeled ligand for non-specific binding; for specific bound radiolabeled ligand (FFAR1 density): 2 nM radiolabeled ligand
T2 construct: 50–100 mg INS-1 xenografts were homogenized using a Polytron tissue homogenizer; from tissue; host or cells: INS-1 (rat insulinoma) xenograft tumours grown subcutaneously in Balbc nu/nu mice, homogenate
T2 sequence (Q8K3T4 whole entry): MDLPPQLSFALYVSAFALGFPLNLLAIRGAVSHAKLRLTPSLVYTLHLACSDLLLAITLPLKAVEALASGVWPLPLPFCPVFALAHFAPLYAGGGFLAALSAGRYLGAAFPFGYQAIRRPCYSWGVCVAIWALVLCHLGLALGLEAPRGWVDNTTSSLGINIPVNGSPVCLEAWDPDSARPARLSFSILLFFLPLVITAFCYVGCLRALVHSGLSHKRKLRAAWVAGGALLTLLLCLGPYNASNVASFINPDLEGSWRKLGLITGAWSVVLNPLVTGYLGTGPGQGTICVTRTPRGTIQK
Procedure: Rat insulinoma cell line INS-1 xenografts, explanted from immunodeficient mice postmortem, were used as a model of beta cells. Briefly, approximately 2 million INS-1 cells were injected subcutaneously in the right flank of Balbc nu/nu mice. Tumor growth was monitored by palpation, and when tumor diameter was 10 mm, the animals were euthanized and the INS-1 tumor explanted.
as §2, §3, §4

[5] = target: T1, FFAR1; assay: In vitro radioligand binding and saturation binding in human exocrine pancreatic tissue homogenate; design: Isolated endocrine (75–95% islet purity) and exocrine tissues were homogenized in ice-cold 0.32 M sucrose; from tissue; host or cells: human exocrine pancreatic tissue, homogenate; settings: for receptor specific binding: human pancreatic exocrine tissue, 2 nM labeled ligand
Procedure: as §1, §2, §3, §4

[6] = human islets, representative saturation binding experiment (Fig. 5a)
[7] = human exocrine tissue, representative saturation binding experiment (Fig. 5b)

For `Cc1cc(OCCCS(C)(=O)=O)cc(C)c1-c1cccc(COc2ccc3c(c2)OC[C@H]3CC(=O)O)c1` [TAK-875, fasiglifam], the EC50 [1] is listed as > 37500 nM and the side effects [2] is listed as “suspected hepatic toxic side effects”.
In the case of `[3H]c1cc([3H])c(OCc2nc(-n3cc(C)cn3)nc(N3CCOCC3)c2[3H])cc1F` [[^3H]AZ1], the “higher FFAR1 binding in human islets compared to human exocrine tissue” value ([3]; 2 nM labeled ligand) is reported as 30%, the “non-specific binding in different pancreatic compartments” value ([3]; human islets vs exocrine tissue) is reported as “little difference” and the islet-to-exocrine ratio ([3]; 2 nM labeled ligand) is reported as 1.3. For the same molecule, the Bmax [3, 6] was 6.3 pmol/mg protein, the Kd [3, 6] was 15.8 nM and the Kd ([3]; human islets, saturation binding 1 to 20 nM, n = 3, mean ± SEM) was 10.6 ± 1.5 nM. For the same molecule, the B max ([3]; human islets, saturation binding, n = 3, mean ± SEM) was 7.0 ± 2.0 pmol/mg protein, the “FFAR1 density by specific binding” value ([3]; 2 nM labeled ligand) was “approximately 1150 fmol/mg protein” and the “off-target (non-displaceable) binding” value [4] was “decreased; also recorded: least”. The “specific bound radiolabeled ligand (FFAR1 density)” value [4] was 132 fmol/mg protein, the specific binding ([4]; incubation dose 2 nM) was “approximately 50%” and the Bmax [5, 7] was 15.8 pmol/mg protein. For the same molecule, the Kd [5, 7] was 26.4 nM, the Kd ([5]; human exocrine tissue, saturation binding 1 to 20 nM, n = 5, mean ± SEM) was 19.7 ± 8.4 nM and the B max ([5]; human exocrine tissue, saturation binding, n = 5, mean ± SEM) was 13.6 ± 2.5 pmol/mg protein. For the same molecule, the receptor specific binding [5] was “below 1000 fmol/mg protein”.
With `[3H]c1cc([3H])c(OCc2nc(-n3cc(C)cn3)nc(N3CCOCC3)c2[3H])cc1Cl` [[^3H]AZ2] the islet-to-exocrine ratio ([3]; 2 nM labeled ligand) was 1.65, the “FFAR1 density by specific binding” value ([3]; 2 nM labeled ligand) was “approximately 1600 fmol/mg protein” and the “off-target (non-displaceable) binding” value [4] was “decreased”. The “specific bound radiolabeled ligand (FFAR1 density)” value [4] was 177 fmol/mg protein and the receptor specific binding [5] was “below 1000 fmol/mg protein”.
In the case of `[3H]c1cc2c(c([3H])c1OCc1cccc(-c3c(C)cc(OCCCS(C)(=O)=O)c([3H])c3C)c1)OC[C@H]2CC(=O)O` [[^3H]TAK-875, reference compound], the “off-target (non-displaceable) binding” value [4] is reported as “high non-specific off-target binding; also recorded: most off-target binding” and the “measurement of FFAR1 density” value ([4]; 4 nM [3H]TAK-875) is reported as “severely underestimated”.
